Values after ≈ are worked out from the molar mass of the structure shown.
Legend:
[1] = system: Streptococcus viridans (Sv-1); assay: MIC, two-fold agar dilution; type: cell-based; details: 18 h, Table 3, GC agar, 10^-2 dilution
[2] = system: Staphylococcus aureus Terajima (Sa-33); assay: MIC, two-fold agar dilution; type: cell-based; details: 18 h, Table 3, Mueller-Hinton agar, 10^-4 dilution
[3] = system: Fusobacterium varium ATCC 8501 (Fv-1); assay: MIC against anaerobic bacteria; type: cell-based; details: ATCC8501, 18 h, Table 4, GAM Medium, pH 7
[4] = system: Streptococcus pyogenes (Sp-3); assay: MIC, two-fold agar dilution; type: cell-based; details: 18 h, Table 3, GC agar, 10^-2 dilution
[5] = system: Escherichia coli NIHJ (Ec-1); assay: MIC, two-fold agar dilution; type: cell-based; details: 18 h, Table 3, Mueller-Hinton agar, 10^-4 dilution
[6] = system: Clostridium chauvoei (Ch-1); assay: MIC against anaerobic bacteria; type: cell-based; details: 18 h, Table 4, GAM Medium, pH 7
Description: (§1) The minimum inhibitory concentrations (MIC) of Bu-2349A and B were determined against a wide variety of bacteria by the two-fold agar dilution method. Mueller-Hinton agar medium was generally used for the determination of bacterial MIC except for species of Streptococcus, Neisseria and Hemophilus for which Gonococcus agar medium (GC agar, Nissui Co., Tokyo) was used. Gifu anaerobe agar medium (GAM agar, Eiken Co., Tokyo) was used for anaerobic bacteria. The MIC's were determined after overnight incubation at 37° C. with an initial inoculum equivalent to a 10^-4 dilution of an 18-hour culture for the aerobic and anaerobic bacteria, except for Streptococcus, Neisseria and Hemophilus for which a 10^-2 dilution was used.

[7] = system: Propionibacterium acnes (Pc-102); assay: MIC against anaerobic bacteria; type: cell-based; details: Cutibacterium acnes, 18 h; Table 4; GAM Medium, pH 7
Description: as §1

[8] = system: Escherichia coli Juhl (Ec-3); assay: MIC, two-fold agar dilution; type: cell-based; details: 18 h
Description: as §1
(§2) The influence of inoculum size on MIC was tested on Mueller-Hinton agar using an inoculum of […], 10^-2 or 10^-4 dilution of the overnight culture of test organisms.
(§3) The effect of media pH on the MIC's of Bu-2349A was determined at three pH levels (6, 7 and 8) using Mueller-Hinton agar.
(§4) The media effect on the MIC's of Bu-2349A was tested using four kinds of assay media: Mueller-Hinton agar (MHA), nutrient agar (NA), heart infusion agar (HIA) and brain heart infusion agar (BHIA). The pH was adjusted at 7 and a 10^-4 dilution of overnight culture was used for the inoculum.

[9] = system: Escherichia coli ML-1630 (Ec-5), APH(3')-1; assay: MIC, two-fold agar dilution; type: cell-based; details: 18 h
Description: as §1, §2, §3, §4

[10] = system: Staphylococcus aureus 209P (Sa-1); assay: MIC, two-fold agar dilution; type: cell-based; details: 18 h
Description: as §1, §2, §3, §4

[11] = system: Pseudomonas aeruginosa (Pa-3); assay: MIC, two-fold agar dilution; type: cell-based; details: 18 h
Description: as §1, §2, §3, §4

[12] = system: Bacillus subtilis PCI 219 (Bs-1); assay: MIC, two-fold agar dilution; type: cell-based; details: 18 h
Description: as §1, §2, §3, §4

[13] = system: Proteus morganii (Pg-1); assay: MIC, two-fold agar dilution; type: cell-based; details: Morganella morganii, 18 h
Description: as §1, §2, §3, §4

[14] = system: Neisseria gonorrhoeae (Ng-1); assay: MIC, two-fold agar dilution; type: cell-based; details: 18 h, Table 3, GC agar, 10^-2 dilution
[15] = system: Escherichia coli (Ec-72), ANT(2"); assay: MIC, two-fold agar dilution; type: cell-based; details: 18 h, Table 3, Mueller-Hinton agar, 10^-4 dilution, enzyme ANT(2")
[16] = system: Clostridium perfringens (Cp-1); assay: microbe, parasite or virus in culture; type: cell-based; details: 18 h, pH 7
[17] = mouse blood level, paper disc-agar plate assay; type: in vivo; details: mice, im, 50 mg./kg.
Description: Blood levels were determined in mice following intramuscular administration of Bu-2349A at a dose of 50 mg./kg. Blood samples were collected from orbital sinuses and assayed by the paper disc-agar plate method using B. subtilis PCI 219 as the test organism.

[18] = system: Mycobacterium phlei D88 (Mp-1); assay: MIC, two-fold agar dilution; type: cell-based; details: Mycolicibacterium phlei, 18 h; Table 3; Mueller-Hinton agar, 10^-4 dilution
[19] = Table 3, Mueller-Hinton agar, 10^-4 dilution
[20] = pH 6, Table 6, Mueller-Hinton Agar, 10^-4 dilution, pH 6
[21] = pH 7, Table 5, Mueller-Hinton Agar, pH 7, inoculum 10^0 dil.
[22] = pH 7, Table 5, Mueller-Hinton Agar, pH 7, inoculum 10^-2 dil.
[23] = pH 7, Table 5, Mueller-Hinton Agar, pH 7, inoculum 10^-4 dil.
[24] = pH 7, Table 6, Mueller-Hinton Agar, 10^-4 dilution, pH 7
[25] = pH 7, Table 7, pH 7, 10^-4 dilution, BHIA
[26] = pH 7, Table 7, pH 7, 10^-4 dilution, HIA
[27] = pH 7, Table 7, pH 7, 10^-4 dilution, MHA
[28] = pH 7, Table 7, pH 7, 10^-4 dilution, NA
[29] = pH 8, Table 6, Mueller-Hinton Agar, 10^-4 dilution, pH 8

Question: For `C=C1OC(OC2C(CO)OC(Oc3ccc(C(=O)NCCCNCCCCNCCCCN)cc3)C2O)C(O)C(OC2OC(CO)C(OC3OC(C)C(N)C(O)C3NC(=O)C(C)N)C(O)C2O)C1O` (stereo not drawn) [Bu-2349A], which MIC [1] is on record?
Answer: > 100 µg/mL

Question: What about the MIC [2] of the same compound?
Answer: 1.6 µg/mL (≈ 1.62 µM)

Question: What about the MIC [3] of the same compound?
Answer: > 100 µg/mL

Question: And the MIC [4]?
Answer: > 100 µg/mL

Question: What about the MIC [5] of the same compound?
Answer: 1.6 µg/mL (≈ 1.62 µM)

Question: What about the MIC [6] of the same compound?
Answer: > 100 µg/mL

Question: What about the MIC [7] of the same compound?
Answer: 12.5 µg/mL (≈ 12.6 µM)

Question: And the MIC [8, 19]?
Answer: 1.6 µg/mL (≈ 1.62 µM)

Question: What about the MIC [8, 20] of the same compound?
Answer: 25 µg/mL (≈ 25.2 µM)

Question: What about the MIC [8, 21] of the same compound?
Answer: 6.3 µg/mL (≈ 6.36 µM)

Question: And the MIC [8, 22]?
Answer: 3.1 µg/mL (≈ 3.13 µM)

Question: And the MIC [8, 23]?
Answer: 3.1 µg/mL (≈ 3.13 µM)

Question: What about the MIC [8, 24] of the same compound?
Answer: 3.1 µg/mL (≈ 3.13 µM)

Question: What about the MIC [8, 25] of the same compound?
Answer: 6.3 µg/mL (≈ 6.36 µM)

Question: And the MIC [8, 26]?
Answer: 1.6 µg/mL (≈ 1.62 µM)

Question: And the MIC [8, 27]?
Answer: 3.1 µg/mL (≈ 3.13 µM)

Question: And the MIC [8, 28]?
Answer: 3.1 µg/mL (≈ 3.13 µM)

Question: What about the MIC [8, 29] of the same compound?
Answer: 1.6 µg/mL (≈ 1.62 µM)

Question: And the MIC ([9]; Table 3, Mueller-Hinton agar, 10^-4 dilution, enzyme APH(3')-1)?
Answer: 1.6 µg/mL (≈ 1.62 µM)

Question: What about the MIC [9, 20] of the same compound?
Answer: 50 µg/mL (≈ 50.5 µM)

Question: What about the MIC [9, 21] of the same compound?
Answer: 6.3 µg/mL (≈ 6.36 µM)

Question: What about the MIC [9, 22] of the same compound?
Answer: 3.1 µg/mL (≈ 3.13 µM)

Question: What about the MIC [9, 23] of the same compound?
Answer: 3.1 µg/mL (≈ 3.13 µM)

Question: What about the MIC [9, 24] of the same compound?
Answer: 3.1 µg/mL (≈ 3.13 µM)

Question: And the MIC [9, 25]?
Answer: 3.1 µg/mL (≈ 3.13 µM)

Question: And the MIC [9, 26]?
Answer: 1.6 µg/mL (≈ 1.62 µM)

Question: What about the MIC [9, 27] of the same compound?
Answer: 3.1 µg/mL (≈ 3.13 µM)

Question: And the MIC [9, 28]?
Answer: 1.6 µg/mL (≈ 1.62 µM)

Question: And the MIC [9, 29]?
Answer: 1.6 µg/mL (≈ 1.62 µM)

Question: What about the MIC [10, 19] of the same compound?
Answer: 3.1 µg/mL (≈ 3.13 µM)

Question: And the MIC [10, 20]?
Answer: 50 µg/mL (≈ 50.5 µM)

Question: What about the MIC [10, 21] of the same compound?
Answer: 6.3 µg/mL (≈ 6.36 µM)

Question: What about the MIC [10, 22] of the same compound?
Answer: 3.1 µg/mL (≈ 3.13 µM)

Question: And the MIC [10, 23]?
Answer: 3.1 µg/mL (≈ 3.13 µM)

Question: What about the MIC [10, 24] of the same compound?
Answer: 3.1 µg/mL (≈ 3.13 µM)

Question: And the MIC [10, 25]?
Answer: 3.1 µg/mL (≈ 3.13 µM)

Question: And the MIC [10, 26]?
Answer: 1.6 µg/mL (≈ 1.62 µM)

Question: And the MIC [10, 27]?
Answer: 3.1 µg/mL (≈ 3.13 µM)

Question: What about the MIC [10, 28] of the same compound?
Answer: 1.6 µg/mL (≈ 1.62 µM)

Question: What about the MIC [10, 29] of the same compound?
Answer: 1.6 µg/mL (≈ 1.62 µM)

Question: And the MIC [11, 19]?
Answer: 25 µg/mL (≈ 25.2 µM)

Question: What about the MIC [11, 20] of the same compound?
Answer: > 50 µg/mL

Question: And the MIC [11, 21]?
Answer: > 50 µg/mL

Question: What about the MIC [11, 22] of the same compound?
Answer: 50 µg/mL (≈ 50.5 µM)

Question: And the MIC [11, 23]?
Answer: 25 µg/mL (≈ 25.2 µM)

Question: What about the MIC [11, 24] of the same compound?
Answer: 25 µg/mL (≈ 25.2 µM)

Question: What about the MIC [11, 25] of the same compound?
Answer: 25 µg/mL (≈ 25.2 µM)

Question: What about the MIC [11, 26] of the same compound?
Answer: 12.5 µg/mL (≈ 12.6 µM)

Question: And the MIC [11, 27]?
Answer: 50 µg/mL (≈ 50.5 µM)

Question: And the MIC [11, 28]?
Answer: 6.3 µg/mL (≈ 6.36 µM)

Question: And the MIC [11, 29]?
Answer: 12.5 µg/mL (≈ 12.6 µM)

Question: What about the MIC [12, 19] of the same compound?
Answer: 1.6 µg/mL (≈ 1.62 µM)

Question: And the MIC [12, 20]?
Answer: 50 µg/mL (≈ 50.5 µM)

Question: And the MIC [12, 21]?
Answer: 6.3 µg/mL (≈ 6.36 µM)

Question: What about the MIC [12, 22] of the same compound?
Answer: 3.1 µg/mL (≈ 3.13 µM)

Question: What about the MIC [12, 23] of the same compound?
Answer: 3.1 µg/mL (≈ 3.13 µM)

Question: What about the MIC [12, 24] of the same compound?
Answer: 3.1 µg/mL (≈ 3.13 µM)

Question: What about the MIC [12, 25] of the same compound?
Answer: 6.3 µg/mL (≈ 6.36 µM)

Question: And the MIC [12, 26]?
Answer: 1.6 µg/mL (≈ 1.62 µM)

Question: What about the MIC [12, 27] of the same compound?
Answer: 3.1 µg/mL (≈ 3.13 µM)

Question: What about the MIC [12, 28] of the same compound?
Answer: 0.8 µg/mL (≈ 0.808 µM)

Question: What about the MIC [12, 29] of the same compound?
Answer: 1.6 µg/mL (≈ 1.62 µM)

Question: And the MIC [13, 19]?
Answer: 25 µg/mL (≈ 25.2 µM)

Question: And the MIC [13, 20]?
Answer: > 50 µg/mL

Question: And the MIC [13, 21]?
Answer: > 50 µg/mL

Question: And the MIC [13, 22]?
Answer: 50 µg/mL (≈ 50.5 µM)

Question: What about the MIC [13, 23] of the same compound?
Answer: 25 µg/mL (≈ 25.2 µM)

Question: What about the MIC [13, 24] of the same compound?
Answer: 25 µg/mL (≈ 25.2 µM)

Question: What about the MIC [13, 25] of the same compound?
Answer: 25 µg/mL (≈ 25.2 µM)

Question: And the MIC [13, 26]?
Answer: 25 µg/mL (≈ 25.2 µM)

Question: What about the MIC [13, 27] of the same compound?
Answer: 25 µg/mL (≈ 25.2 µM)

Question: What about the MIC [13, 28] of the same compound?
Answer: 6.3 µg/mL (≈ 6.36 µM)

Question: What about the MIC [13, 29] of the same compound?
Answer: 25 µg/mL (≈ 25.2 µM)

Question: What about the MIC [14] of the same compound?
Answer: > 100 µg/mL

Question: And the MIC [15]?
Answer: 1.6 µg/mL (≈ 1.62 µM)

Question: And the MIC [16]?
Answer: > 100 µg/mL

Question: And the “antibiotic activity in blood after 2 hours” value ([17]; after 2 hours)?
Answer: No antibiotic activity was detected

Question: What about the “elimination from the blood stream” value ([17]; after the peak) of the same compound?
Answer: rapid elimination from the blood stream

Question: What about the concentration at 0.25 h ([17]; mouse, blood, 15 minutes) of the same compound?
Answer: 15000 ng/mL

Question: And the concentration at 0.5 h ([17]; mouse, blood, 30 minutes)?
Answer: 12000 ng/mL

Question: And the concentration at 1 h ([17]; mouse, blood, 60 minutes)?
Answer: 2800 ng/mL

Question: What about the concentration at 2 h ([17]; mouse, blood, 120 minutes) of the same compound?
Answer: > 1000 ng/mL

Question: And the Tmax ([17]; mouse, blood, read-out: time of peak blood level (converted))?
Answer: 15 min

Question: And the MIC [18]?
Answer: 3.1 µg/mL (≈ 3.13 µM)

— patent US4250170A, “Antibacterial agents Bu-2349A and B and method of using same” (Bristol-Myers Company, priority 1979, dated 1981)
